# “Also recorded” adds a separate entry of the source.
# Experiments:
# E0771-E2 cells [1] = test: Antigen presentation of cOva by MHC class I on BMDM co-cultured with cOva-expressing tumor cells; type: cell-based, murine
# Method: (§1) CRT behaves as a pro-phagocytic signal. The effect of SSI-4 treatment on tumor cell phagocytosis by bone marrow-derived macrophages (BMDM) in vitro was determined. SSI-4 (1000 nM) induced the highest level of phagocytosis in both TUBO and E0771-E2 cells (5 and 13%, respectively) (FIG. 2a). […] Downstream activation of T lymphocytes is dependent on the successful maturation and presentation of antigen by antigen-presenting cells such as macrophages (Woo 2015). SSI-4 driven activation of BMDMs in vitro was evaluated by measuring antigen presentation of chicken ovalbumin (cOva) by MHC class I receptors on BMDM after co-culturing them with cOva-expressing tumor cells. […] CD8+ T lymphocyte activation was evaluated in vitro using splenic T cells derived from OT-I transgenic mice which recognize ovalbumin residues 257-264 in the context of H2Kb. Proliferation and interferon gamma (IFNγ) production was measured in T lymphocytes co-cultured with both cOva-expressing tumor cells and BMDM treated with SSI-4. In addition, in order to evaluate whether the effects of SSI-4 on T lymphocyte activation were direct or mediated through a tumor-specific mechanism, concurrent analysis in SSI-4 treated T lymphocytes alone and T lymphocytes co-cultured with BMDM only was performed.
# TUBO cells [2] = test: as above; type: cell-based, murine
# Method: as §1
# E0771-E2 cells [3] = test: Tumor cell phagocytosis by bone marrow-derived macrophages (BMDM) in vitro; type: cell-based, murine
# Method: as §1
# TUBO cells [4] = test: as above; type: cell-based, murine
# Method: as §1
# [5] = system: 4T1 TNBC breast cancer cells; test: Tumor cell phagocytosis in vitro; type: cell-based; details: 4T1 cells
# TUBO tumors [6] = test: TUBO HER2-positive tumors, SSI-4, PD-1 blockade and combination, CD8 depletion; details: SSI-4 monotherapy
# Method: Materials and methods: The checkpoint inhibitor used was a mouse anti-PD-1 that was purchased from BioXCell (catalog #BE0146). The checkpoint inhibitor was administered at 100 μg/dose (5 mg/kg) by intraperitoneal (IP) injection.
# (§3) To negate the effects of PD-L1 upregulation, the combination of PD-1 antibody-mediated blockade, the receptor for PD-L1, and SSI-4, was tested.
# OT-I CD8 T cells = test: CD8+ T lymphocyte activation in vitro (proliferation, IFNγ) in co-culture with cOva-expressing tumor cells and BMDM; type: cell-based, mice; details: for interferon gamma (IFNγ) production in OT-I CD8 T cells / OT-I CD8 T cell proliferation: SSI-4 1000 nM
# Method: as §1
# [7] = system: E0771 TNBC breast cancer cells; test: Tumor cell phagocytosis in vitro; type: cell-based
# Method: as §1
# [8] = system: live tumor cells (HER2-positive and TNBC breast cancer); test: Plasma membrane translocation of calreticulin, flow cytometry on live tumor cells; type: cell-based, murine; details: 48 hour treatment
# Method: Significance shown for 1000 nM dose (anova).
# (§2) SSI-4 induces ER stress in tumor cells. […] ER stress can provoke a therapeutically relevant adaptive immune response against malignant cells through the emission of immunostimulatory signals, or damage-associated molecular patterns (DAMPs) such as heat shock proteins and translocation of calreticulin (CRT) to the plasma membrane (17). In particular, phosphorylation of eIF2a has been reported to mediate CRT translocation (20) which is correlated with the induction of immunogenic cell death (ICD) and favorable disease outcome in a variety of malignancies (17).
# [9] = system: TUBO, E0771-E2, and N202 tumor cells; test: ER stress activation in tumor cells (p-eIF2α Ser51, CHOP levels); type: cell-based, murine; details: SSI-4 10-1000 nM
# Excerpt: as §2
# OT-II CD4 T cells = test: OT-II CD4 T cell proliferation in co-culture; type: cell-based; details: for OT-II CD4 T cell proliferation: SSI-4 1000 nM
# E0771-E2 tumors = test: E0771-E2 tumor bearing mice, SSI-4, PD-1 blockade and combination
# Method: The checkpoint inhibitor was administered at 100 μg/dose (5 mg/kg) by intraperitoneal (IP) injection.
# as §3
# Tumor-infiltrating (TI) leukocytes and lymphocytes were assessed by multicolor flow cytometry on dissociated treated tumor tissue extracted from E0771-E2 bearing mice on day 27 of the study. […] 5G: To determine whether anti-tumor activity of SSI-4/PD-1 combination therapy is dependent on cytotoxic CD8 T lymphocyte activity, CD8 depletion studies were performed in mice receiving either placebo or combination therapy.
# TUBO tumors [10] = test: TUBO orthotopic mammary fat pad tumors, SSI-4 monotherapy; type: in vivo, BALB/c mice
# Method: SSI-4 mediated immunomodulation in vivo was evaluated. TUBO cells were injected orthotopically into the mammary fat pad of BALB/c mice. Animals received either sham or SSI-4 (180 mg/kg) orally (continuous) when tumor burden reached 50-100 mm^3. […] Tumor tissue was harvested 14 days after treatment onset for analysis.
# As SSI-4 treatment of tumor cells enhances the antigen presenting capabilities of APCs in vitro, tumor-associated recruitment of professional phagocytes in vivo including macrophages (MP) and dendritic cells (DC) was evaluated. The ratio of tumor leukocyte recruitment by comparing the ratio of cluster of differentiation 45 antigen (CD45) positive to negative cells sorted from dissociated tumor tissue within control and SSI-4 treated mice was determined. Results indicated a 10% increase in the number of tumor-associated leukocytes within SSI-4 treated animals (FIG. 3f). Next, tumor sections were stained for F4/80, a macrophage (MP) marker. […] To determine intra-tumor dendritic cell infiltration, tumors were dissociated and analyzed via flow cytometry for DCs based on CD45^+MHCII^+CD11c^hi expression. […] As tumor-associated macrophage (TAM) cells can be correlated with either a tumor-suppressive or pro-inflammatory phenotype, we sorted this population identified by MHCII^+CD11c^loF4/80^+ based on the polarization markers interleukin-1β (IL-1β) and IL-10, comparing the expression profiles from both treatment groups as well as mammary tissue extracted from non-tumor bearing mice.
# SSI-4 mediated APC activation could augment T lymphocyte infiltration and activation. […] The maturation status of T lymphocytes from CD3+ cells isolated from the spleen of treated animals by comparing the ratio of CD44 to CD62L expression in either CD4 or CD8 T-cells was examined. […] The activation status of T lymphocytes isolated from digested tumors was also assessed. […] Granzyme B-positive CD8 T-cells were also enriched in SSI-4 treated tumors (FIG. 4f), another marker for activated CD8+ T lymphocytes.
# [11] = SSI-4 treated T lymphocytes alone or T lymphocyte-BMDM co-cultures
# [12] = splenic CD3+ cells, CD44 to CD62L
# [13] = tumor tissue 14 days after treatment onset
structure (smiles),measurement,setting,value
"CNC(=O)c1ccnc(NC(=O)N2CCC(Oc3ccccc3Cl)CC2)c1 [SSI-4, 2-{[4-(2-Chlorophenoxy)piperidine-1-carbonyl]amino}-N-methylpyridine-4-carboxamide]",SSI-4 enhanced antigen presentation with adjuvant CRT neutralization,E0771-E2 cells [1],inhibited
same,antigen presentation,E0771-E2 cells [1]; SSI-4 100 nM,5%
same,antigen presentation,E0771-E2 cells [1]; SSI-4 1000 nM,5%
same,SSI-4 enhanced antigen presentation with adjuvant CRT neutralization,TUBO cells [2],inhibited
same,antigen presentation,TUBO cells [2]; SSI-4 100 nM,8.5%
same,antigen presentation,TUBO cells [2]; SSI-4 1000 nM,8.5%
same,SSI-4 induced phagocytosis with adjuvant CRT neutralization,E0771-E2 cells [3]; CRT blocking antibody,reversed; also recorded: significantly abrogate
same,level of phagocytosis,E0771-E2 cells [3]; SSI-4 1000 nM,13%
same,SSI-4 induced phagocytosis with adjuvant CRT neutralization,TUBO cells [4]; CRT blocking antibody,reversed; also recorded: significantly abrogate
same,level of phagocytosis,TUBO cells [4]; SSI-4 1000 nM,5%
same,SSI-4 induced phagocytosis with adjuvant CRT neutralization,[5],reversed
same,level of phagocytosis,[5]; SSI-4 1000 nM,12.5%
same,improved median survival compared to PD-1 monotherapy,TUBO tumors [6],~35%
same,improved median survival compared to sham,TUBO tumors [6],approximately 37%
same,SSI-4 enhanced IFNγ production with CRT neutralization,OT-I CD8 T cells; E0771-E2 cells,mild (n.s.) decrease
same,SSI-4 enhanced OT-I CD8 T cell proliferation with adjuvant CRT neutralization,OT-I CD8 T cells; E0771-E2 cells,inhibited
same,SSI-4 enhanced IFNγ production with adjuvant CRT neutralization,OT-I CD8 T cells; MMTV-neu cells,inhibited; also recorded: abrogate
same,SSI-4 enhanced OT-I CD8 T cell proliferation with adjuvant CRT neutralization,OT-I CD8 T cells; MMTV-neu cells,inhibited; also recorded: abrogate
same,interferon gamma (IFNγ) production in OT-I CD8 T cells,OT-I CD8 T cells; triple culture with E0771-E2,significantly enhanced; also recorded: potently induce
same,OT-I CD8 T cell proliferation,OT-I CD8 T cells; triple culture with E0771-E2 tumor cells and macrophages,significantly enhanced; also recorded: potently induce
same,interferon gamma (IFNγ) production in OT-I CD8 T cells,OT-I CD8 T cells; triple culture with MMTV-neu,significantly enhanced; also recorded: potently induce
same,OT-I CD8 T cell proliferation,OT-I CD8 T cells; triple culture with MMTV-neu tumor cells and macrophages,significantly enhanced; also recorded: potently induce
same,IFNγ production without tumor cells,OT-I CD8 T cells; [11],No significant changes
same,T lymphocyte proliferation without tumor cells,OT-I CD8 T cells; [11],could not induce T cell proliferation; also recorded: No significant changes
same,"T cell proliferation with tumor cells bearing empty vector (EV), no cOVA antigen",OT-I CD8 T cells; SSI-4 treatment,could not similarly stimulate T cell proliferation
same,SSI-4 induced phagocytosis with adjuvant CRT neutralization,[7],reversed
same,level of phagocytosis,[7]; SSI-4 1000 nM,9.4%
same,plasma membrane translocation/expression of calreticulin (CRT),"[8]; 10 nM, flow cytometry on live tumor cells",induces plasma membrane translocation of calreticulin; also recorded: potently upregulates plasma membrane expression of CRT
same,plasma membrane translocation of calreticulin,"[8]; 10-1000 nM, HER2-positive and TNBC breast cancer cells, significance shown for 1000 nM",induces plasma membrane translocation of calreticulin
same,activation of ER stress (phosphorylated eIF2α at serine51 and CHOP levels),[9],activation of ER stress
same,SSI-4 enhanced OT-II CD4 T cell proliferation with adjuvant CRT neutralization,OT-II CD4 T cells; E0771-E2,inhibited
same,SSI-4 enhanced OT-II CD4 T cell proliferation with adjuvant CRT neutralization,OT-II CD4 T cells; MMTV-neu,inhibited
same,OT-II CD4 T cell proliferation,OT-II CD4 T cells; E0771-E2,significantly enhanced
same,OT-II CD4 T cell proliferation,OT-II CD4 T cells; MMTV-neu,significantly enhanced
same,programmed death ligand-1 (PD-L1) expression in tumor,E0771-E2 tumors; EO771-E2 tumor bearing mice,induces
same,protein expression of PD-L1 in tumor-infiltrating dendritic and macrophage cells,E0771-E2 tumors; FIG. 25,significant changes
same,improved median survival compared to PD-1 monotherapy,E0771-E2 tumors; SSI-4 monotherapy,~20%
same,improved median survival compared to sham,E0771-E2 tumors; SSI-4 monotherapy,approximately 22%
same,effector/cytotoxic CD8+ T lymphocytes in tumor,E0771-E2 tumors; dissociated tumors,increased; also recorded: significant increase
same,increase of intratumor infiltration of macrophages,"E0771-E2 tumors; flow cytometry, day 27",approximately 8%
same,protein expression of checkpoints PD-L1 or PD-L2 in dendritic cells,E0771-E2 tumors; intratumor dendritic cells,No significant changes
same,PD-L1 expression on macrophages,E0771-E2 tumors; intratumor macrophages,increased PD-L1; also recorded: strongly induce PD-L1 expression on macrophages
same,intratumor population of T regulatory cells,"E0771-E2 tumors; mouse, in vivo",deleterious effect
same,tumor infiltrating macrophages,"E0771-E2 tumors; mouse, in vivo",increased the number of tumor infiltrating macrophages; also recorded: significant influx
same,"checkpoint protein expression (CTLA-4, TIM3) on CD4 and CD8 positive T lymphocytes",E0771-E2 tumors; tumor-infiltrating T lymphocytes,upregulation of both CTLA-4 and TIM-3
same,number of CD4+ tumor-infiltrating populations,TUBO tumors [10]; IHC of tumor sections,significant increase
same,number of CD8+ tumor-infiltrating populations,TUBO tumors [10]; IHC of tumor sections,significant increase
same,programmed death ligand-1 (PD-L1) expression in tumor,"TUBO tumors [10]; IHC of tumor sections, TUBO tumor bearing mice",induces
same,pro-inflammatory cytokine (IL-1β) expression in tumor-associated macrophages,TUBO tumors [10]; MHCII+CD11cloF4/80+ cells,increased expression of pro-inflammatory cytokines; also recorded: significant increase in IL-1β
same,overall survival,TUBO tumors [10]; SSI-4 180 mg/kg orally (continuous) vs sham,appreciable increase in overall survival
same,tumor progression,"TUBO tumors [10]; SSI-4 180 mg/kg orally (continuous) vs sham, 180 mg/kg",slower tumor progression; also recorded: tumor progression invariably occurred
same,tumor sizes at 30 days after onset of therapy,"TUBO tumors [10]; SSI-4 180 mg/kg orally (continuous), when control animals reached endpoint",markedly smaller tumor sizes
same,effector CD4 and CD8 T lymphocytes identified by IFNγ,TUBO tumors [10]; T lymphocytes from digested tumors,markedly increased
same,increase in the number of tumor-associated leukocytes (CD45),"TUBO tumors [10]; dissociated tumor tissue, SSI-4 vs control",10%
same,number of intra-tumor dendritic cells,"TUBO tumors [10]; flow cytometry CD45+MHCII+CD11chi, vs control treated tumors and normal mammary tissue",significant increase
same,perforin in tumors,"TUBO tumors [10]; mouse, in vivo",significant increase in perforin
same,naïve T-cell numbers,TUBO tumors [10]; spleen,concomitant decrease
same,memory and effector T-cells among CD4 positive T cell populations,TUBO tumors [10]; [12],robust induction
same,memory and effector T-cells among CD8 positive T cell populations,TUBO tumors [10]; [12],robust induction
same,intra-tumor penetration of macrophages (F4/80),TUBO tumors [10]; tumor sections,increased intra-tumor penetration
same,"macrophages, positive F4/80 IHC staining",TUBO tumors [10]; tumor sections,43.3±8.6 % pop.
same,Ki-67 protein staining,"TUBO tumors [10]; tumor sections, sham 47.7±6.4",36.7±6.2 %+nuclei
same,"cleaved caspase 3 (CC3) staining, H","TUBO tumors [10]; tumor sections, sham H=4.9±2.6",10.7±3.9
same,cleaved caspase 3 (CC3) staining,TUBO tumors [10]; [13],significant increase
same,proliferative capacity of tumors via nuclear Ki67 staining,TUBO tumors [10]; [13],significant reduction in the proliferative capacity
same,Granzyme B-positive CD8 T-cells,TUBO tumors [10]; tumors,enriched
same,number of intra-tumor T regulatory cells (dual CD25 and FoxP3 expression),TUBO tumors [10]; tumors,significantly reduced; also recorded: profound decrease

# — patent US11596629B2, “Compounds and methods for treating cancer” (Mayo Foundation for Medical Education and Research, priority 2017, dated 2023)
